Values of other authors, collected in US20240248099A1, “BIOMARKERS FOR AGE-RELATED MACULAR DEGENERATION” (BELITE BIO, LLC, priority 2021, published 2024).

Target: T1, RBP4 (Homo sapiens, UniProt P02753)
T1 construct: host or cells: serum of AMD patients (endogenous circulating protein)

CC1=C(/C=C/C(C)=C/C=C/C(C)=C/C(=O)Nc2ccc(O)cc2)C(C)(C)CCC1 [fenretinide]
incidence of choroidal neovascularization onset (246 AMD patients with only geographic atrophy, 100 mg or 300 mg fenretinide or placebo, 2 years, especially in the higher dose group): reduction in the incidence of choroidal neovascularization onset
growth rate of geographic atrophy, overall cohort (overall cohort, insufficient number of subjects achieving serum RBP4 less than 1 μM): no statistically significant retardation of the growth rate of geographic atrophy
rate of geographic atrophy progression versus serum RBP4 level (patients who achieved RBP4 levels below 1 μM (approximately 20 μg/ml) after fenretinide treatment): a lower serum RBP4 level was correlated with a slower rate of geographic atrophy progression
